Results reported in patent publication US12600696B2 (XENIOPRO GMBH, priority 2017, dated 2026).

Columns and labels:
Assay type in all cases: cell-based
[1] = test system: CAL-27 cells (human tongue squamous cell carcinoma cells); assay: alamarBlue proliferation assay with CAL-27 cells; conditions: Homo sapiens, 120 h, 20 μM, 5 days, relative to DMSO baseline level of 1.0, read-out: AVEw, weighted arithmetic mean of normalized fluorescence intensity values (Activity Range), CAL-27 proliferation
Outline: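 CAL-27 cells seeded at 2000 per well, exposed to compound in 0.1% DMSO for 5 days, then alamarBlue fluorescence (ex 560/em 590 nm). Values normalized to DMSO wells (1.0) as weighted means with combined standard deviation; growth inhibition judged at 20 μM reference concentration.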

[2] = test system: HL-60 cells (human acute myeloid leukemia cells); assay: alamarBlue proliferation assay with HL-60 cells; conditions: 120 h, 5 days, relative to DMSO baseline level of 1.0, read-out: AVEw, weighted arithmetic mean of normalized fluorescence intensity values (Activity Range), HL-60 proliferation
Outline: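 HL-60 cells (1000/well, RPMI 1640 + 10% FBS) exposed to compound in 0.1% DMSO for 5 days, then alamarBlue fluorescence read (ex 560/em 590 nm). Signals normalized to six DMSO wells per plate (baseline 1.0); outliers removed by Peirce/Chauvenet; weighted mean with combined SD; inhibitor criterion judged at 20 μM reference concentration.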

[3] = test system: TT cells (human medullary thyroid carcinoma cells); assay: alamarBlue proliferation assay with TT cells; conditions: Homo sapiens, 120 h, 40 μM, relative to DMSO basis level 1.0, read-out: weighted arithmetic mean (AVEw) of normalized fluorescence intensity, activity range
Procedure: (§1) The antiproliferative activities of compounds falling under formula I, formula II, formula III, formula IV and formula V were investigated on cells or cell lines originating from a disorder of the myeloid cell compartment, the neuroendocrine system, the cervix, and the mucosal epithelium, as well as from the skin epithelium. To this end, HL-60 cells, TT cells, HeLa cells, CAL-27 cells and human primary epidermal keratinocytes (HPEK) were seeded into 96-well plates suitable for fluorescence assays (CORNING #3598) at following initial cell numbers: 1000 cells per well for HL-60; 9000 cells per well for TT; 2000 cells per well for HeLa, 2000 cells per well for CAL-27, 2000 cells per well for HPEK. The cells were treated with compounds at indicated final concentrations (diluted from the 1000× stock-solutions in DMSO to a final DMSO concentration of 0.1% v/v) or with the empty carrier DMSO at 0.1% v/v as control for 5 days. At day 5 after starting the treatments the cells were subjected to the alamarBlue® Proliferation Assay (Bio-Rad Serotec GmbH, BUF012B) according to the protocol of the manufacturer. The readout was taken with a multi-well plate-reader in the fluorescence mode with applying a filter for excitation at 560 nm (band width 10 nm) and for emission at 590 nm (band width 10 nm). Resveratrol (RES) treatment was included as control for growth inhibition.
(§2) The assays were performed in duplicate or more replicates of independent single experiments each containing a six-fold replicate for every condition. For every individual plate, the measured fluorescence intensity values of the conditions with compound treatment were normalized against the corresponding equally weighted arithmetic mean of the fluorescence intensity values of the six DMSO treated control wells in order to obtain the relative values to a baseline level of 1.0. The statistical calculations were performed in analogy to the luciferase assay as described above. To this end, two independent outlier analyses were performed according to the methods by Peirce and Chauvenet (Ross, Journal of Engineering Technology 2003, 1-12). Outliers confirmed by at least one of the methods were excluded from the calculations but not more than one value out of six per compound within a single experiment. The weighted arithmetic mean AVEw for each compound was calculated from the normalized values over all independent replicates of the single experiments comprising the six replicates each. The corresponding standard deviation for the weighted arithmetic mean was calculated according to the method described by Bronstein et al. (Bronstein, Semendjajew, Musiol, Mühlig, Taschenbuch der Mathematik, 5th edition 2001 (German), publisher: Verlag Harri Deutsch, Frankfurt am Main and Thun) and was combined with the Gauß′ error propagation associated with the performed calculation for the normalization. The resulting standard deviation is herein referred to as “combined standard deviation”.
TT cells were cultivated according to the protocol of the provider in F-12K medium (Fisherscientific, #11580556, or ATCC, #ATCC-30-2004) containing 10% fetal bovine serum (Fisherscientific, #15517589).
(§3) A compound is considered as a growth inhibitor of TT cells, if—at a reference concentration of 40 μM—the weighted arithmetic mean of the normalized fluorescence intensity values after addition of the corresponding combined standard deviation amounts to 0.9 or lower, in particular to 0.8 or lower, 0.7 or lower, 0.6 or lower, 0.4 or lower, and 0.2 or lower, relative to the overall basis level of 1.0. The overall basis level was calculated as the weighted arithmetic mean of all normalized values from the DMSO control measurements in analogy to the calculations performed for the test-compounds. The corresponding combined standard deviation for the DMSO values amounts to less than 1·10^−2.

[4] = test system: HPEKp cells (human epidermal keratinocyte progenitors, pooled); assay: alamarBlue proliferation assay with HPEKp cells; conditions: 120 h, relative to DMSO basis level 1.0, read-out: weighted arithmetic mean (AVEw) of normalized fluorescence intensity, activity range
Procedure: as §1, §2
HPEKp cells were cultivated according to the protocol of the provider in CnT-Prime epithelial culture medium (CELLnTEC, #CnT-PR, a fully defined, low calcium formulation, completely free of animal or human-derived components) without addition of further components.
as §3, with “HPEKp” for “TT”, “10” for “40”

[5] = test system: BHY cells (human oral squamous cell carcinoma cells); assay: alamarBlue proliferation assay with BHY cells; conditions: 72 h, 3 days treatment, single assay (preliminary), relative to DMSO basis level 1.0, read-out: equally weighted arithmetic mean (AVE) of six normalized fluorescence intensity values, activity range (RES: AVEw)
Procedure: Compounds were tested on BHY cells using the alamarBlue® proliferation assay in analogy to the above described method with seeding the cells at an initial number of 4000 cells per 96-well and a duration of treatment with compounds for 3 days.
BHY cells were cultivated according to the protocol of the provider (but at 5% instead of 10% CO2) in DMEM medium (Fisherscientific, #11584456) containing 10% fetal bovine serum (Fisherscientific, #15517589).
A compound is considered as a growth inhibitor of BHY cells, if—at a reference concentration of 40 μM—the equally weighted arithmetic mean (AVE) of the six normalized fluorescence intensity values after addition of the corresponding standard deviation amounts to 0.9 or lower, in particular to 0.8 or lower, 0.7 or lower, 0.6 or lower, 0.4 or lower, and 0.2 or lower, relative to the overall basis level of 1.0. The overall basis level was calculated as the weighted arithmetic mean (AVEw) of all normalized values from the DMSO control measurements. The corresponding combined standard deviation for the DMSO values amounts to less than 1·10^−2. The corresponding standard deviations for the tested compounds were calculated including the Gauß′ error propagation associated with the performed calculation for the normalization. The weighted arithmetic mean (AVEw) and the combined standard deviation for RES was calculated in analogy to DMSO. Outlier analyses were performed as described above.

| Structure (SMILES) | activity at 20 µM [1] | activity at 20 µM [2] | activity at 40 µM [3] | activity at 10 µM [4] | activity at 40 µM [5] |
| --- | --- | --- | --- | --- | --- |
| O=C(NO)c1ccc(Oc2ccc(C3CCCCC3)cc2)c(F)c1 [Compound 540, 4-(4-cyclohexylphenoxy)-3-fluoro-N-hydroxybenzamide] | 0 to 20% | 0 to 20% | 20 to 40% | 20 to 40% | 0 to 20% |
| CCC(C)(C)c1ccc(Oc2ncc(C(=O)NO)cc2F)cc1 [Compound 633] | 0 to 20% | 0 to 20% | – | – | 20 to 40% |
